The text below walks through data of patent publication US20050095219A1, “Compositions for promoting vaginal cell proliferation and maturation” (priority 2003, published 2005).

The subject of assay [1] is Candida albicans, ATCC 10231. Nature of the assay: Candida albicans attachment to A431 cells. In kind it is cell-based. Here is the method: A culture of Candida albicans, ATCC 10231, was started in peptone/glucose culture medium and incubated at 37° C. with shaking for three days before the experiment. A monolayer of A431 cells, ATCC CRL-1555, was grown on a 24-well tissue culture plate until confluent. Hyaluronic acid at concentration of 1 mg/ml or 5 mg/ml in PBS was added to the wells (1.2 ml/well), and the plates were incubated for 30 minutes at 35° C. A control plate of confluent A431 cells was also prepared that received 1.2 ml/well PBS and no hyaluronic acid. After the 30 min incubation, 0.5 ml of solution was removed from the wells and 0.5 ml of yeast suspension (1×10^6 cfu/ml) was added. After 2 hours of incubation, the supernatant was removed from the wells and the wells were rinsed thoroughly with PBS to remove all non-bound yeast. Then, 0.2 ml of 0.25% trypsin/EDTA was added to each well and the plates were incubated at 35° C. for 15 min. Trypsinization was stopped by adding 1 ml of 10% fetal bovine serum in culture medium. The trypsinized cell/yeast suspension was centrifuged and re-suspended in 1 ml of the medium. […] The number of colonies on each plate was counted and the number of yeast attached to the cells in each well was calculated.
(§1) All the data are expressed as mean ± SEM and were analyzed by one-way Analysis of Variance (ANOVA) followed by a Tukey-Kramer Multiple Comparisons Test. […]

The test system of assay [2] is E. coli, ATCC 53505. Description: Effect on E. coli growth (optical density at 540 nm). Particulars: 1 mg/ml or 5 mg/ml, 1, 2 and 3 hours. In kind it is cell-based. Here is the method: To test whether hyaluronic acid could influence cellular growth, E. coli, ATCC 53505 cells were cultured overnight in trypticase soy broth. The culture was then diluted to an optical density of 0.1 and hyaluronic acid (1 mg/ml or 5 mg/ml) in PBS was incubated with the E. coli suspension. A control comprising a suspension E. coli treated with PBS was also prepared. The test and control cells were incubated at 37° C. with shaking and the optical density of the bacterial suspensions at 540 nm was measured at 1, 2 and 3 hours after addition of the hyaluronic acid or PBS. All the data are expressed as mean ± SEM and were analyzed by one-way Analysis of Variance (ANOVA) followed by a Tukey-Kramer Multiple Comparisons Test. Differences were considered significant at the level of p<0.05.

The test system of assay [3] is Primary vaginal epithelial cells. Nature of the assay: Glycogen production, periodic acid Schiff (PAS) assay. In kind it is cell-based, human. The conditions noted are these: 0.1 mg/mL, 5 days treatment, p<0.05 vs control. How it is done:
Primary vaginal epithelial cells were cultured in 96-well plates. Five samples were tested for each group. Treatment was for 5 days with culture medium solutions (PrEBM, Clonetics CC-3165) without (the control group) and with 0.1 mg/mL hyaluronic acid (Sigma H-1751). The media were changed every other day. At the end the treatment, the media was removed, and the well was washed twice with HBSS.
Glycogen tests were performed using a periodic acid Schiff (PAS) assay as described below. Before the test, cells were fixed with a 10 vol % Formalin/ethanol solution for 1 hour at room temperature, followed by continuous rinsing with deionized (DI) water for 1 minute. Harleco® PAS Aassay Kit (from EM Science 64945/43) was used for glycogen detection. The basic principle is that the hydroxy groups on the glycogen units were first oxidized into aldehyde groups by periodic acid, and the aldehyde groups reacted with Schiff's agent to produce a red colorant. The specific assay operations were all done at room temperature as follows: • 1. Periodic acid reagent was added to the well/chamber and allowed to stand for 10 minutes). • 2. Samples were continuously rinsed in water for one minute. • 3. Schiff's reagent was added and allowed to stand for 15 minutes. • 4. […] The numbers of glycogen-stained positive cells were manually counted under microscope.

The test system of assay [4] is E. coli with P family pili, ATCC 53505. Nature of the assay: E. coli adhesion test on A431 cells. It counts as cell-based. Here is the method: Cultured A431 cells were used as a model human epithelial cell line. A431 cells were obtained from American Cell Type Culture Collection, catalog # CRL-1555. A monolayer of A431 cells was grown on a 24-well tissue culture plate until confluent. E. coli with P family pili, ATCC 53505, were cultured in trypticase soy broth (TSB) overnight. Phosphate buffered saline (PBS, control) or hyaluronic acid (Sigma, catalog # H1876) solutions at a concentration of 1 mg/ml or 5 mg/ml in PBS were added to the A431 cell layers, using a volume of 1.2 ml/well. For comparison, a control plate was set up and treated identically as the test plate, except that the wells in the control plate were given PBS without hyaluronic acid. After incubation for 30 minutes at 37° C., 0.5 ml of solution was removed from the wells and 0.5 ml of the bacteria suspension was added. […] After 60 minutes, the supernatant in each well was removed and the wells were rinsed thoroughly with PBS to remove all non-bound bacteria. Trypticase soy broth was then added to wells, and the system was incubated at 37° C. with shaking at 100 rpm/min for 2 hours. Bacterial concentration was measured by the detection of optical density of bacterial suspension at 540 nm.
as §1

Assay [5] has as its system Normal human vaginal epithelial cells (NHVE 5164). Description: Vaginal cell proliferation (CellTiter 96 Aqueous One Solution). The conditions noted are these: complete medium, 72 hours. In kind it is cell-based. How it is done: Normal human vaginal epithelial cells from Clonetics (NHVE 5164) were subcultured into 96 well plates at 37° C., 5% CO2. Cells were cultured with basal PrEBM (Clonetics CC 3165) supplemented with cell growth medium bulletKit (Clonetics, cc-3166). Cells were treated with HLA having different molecular weights (MW), HLA1 (Sigma #H1751, intrinsic viscosity=100), HLA2 (MW, 150-500 k, Carbomer #8-01250) and HLA3 (a disaccharide, MW 405, Sigma #H9649). HLA was dissolved in either basal culture medium or basal medium supplemented with growth factors (complete medium) at concentration of 100, 10 or 1 μg/ml. Control group cells were treated with culture medium only. Each treatment group included 6 samples. The media for the different samples were changed 48 hours later and cell proliferation was examined at 72 hours by using CellTiter 96 Aqueous One Solution from Promega (#TB245). Twenty μl of the reagent was added to each well. The plates were returned to cell culture incubator for 3 hours. The absorbance in each well was measured at 490 nm with a microtiter reader.

hyaluronic acid: the “number of Candida albicans adhering to A431 cells” value in assay [1] (1 mg/ml in PBS) is “the effect was not so significant”; in assay [1] (5 mg/ml in PBS) it was “significantly inhibited”. In assay [2], the E. coli growth result is “neither of the hyaluronic acid solutions had any effect on bacterial growth”. Besides, the “glycogen production (numbers of glycogen-stained positive cells)” value in assay [3] is on record as “increase in glycogen production was statistically significant”. Also, the “number of E. coli attached to A431 cells” value is listed as “lesser effect on E. coli adhesion” in assay [4] (1 mg/ml in PBS) and “significantly inhibited” in assay [4] (5 mg/ml in PBS).

For the substance hyaluronic acid [HLA2], the “vaginal cell proliferation compared to control group” value in assay [5] (any of the three concentrations tested (100, 10, 1 μg/ml)) is “no statistically significant effect”.

Regarding hyaluronic acid [HLA1], the “vaginal cell proliferation compared to control group” value in assay [5] (100 μg/ml) is “significantly promoted vaginal cell proliferation”; in assay [5] (low concentrations 10 and 1 μg/ml) it was “no significant effect on cell proliferation”.
